Experimental data taken from ChEMBL document CHEMBL3243969, “Synthesis and chemical carcinogen inhibitory activity of 2-tert-butyl-4-hydroxyanisole” (J Med Chem, 1979).
“And” between values parts separate entries of the source, which are not always exact repeats. Identical values can stand only once.

Key:
Mus musculus [1] = assay: Toxicity in ICR/Ha mouse forestomach assessed as body weight gained at 5 mg/kg administered through diet for 1 week prior to benzo[alpha]pyrene challenge and continued additional 2 days post last dose of benzo[alpha]pyrene relative to control; type: organism-based, Stomach; design: dose 5 mg/kg; conditions: in vivo, po
Mus musculus [2] = assay: Toxicity in ICR/Ha mouse forestomach assessed as diet intake at 5 mg/kg administered through diet for 1 week prior to benzo[alpha]pyrene challenge and continued additional 2 days post last dose of benzo[alpha]pyrene (reference value: 4.3 g/day); type: organism-based, Stomach; design: dose 5 mg/kg; conditions: in vivo, po
Mus musculus [3] = assay: (§1) Antineoplastic activity in ICR/Ha mouse forestomach assessed as decrease in benzo[alpha]pyrene-induced tumor incidence at 5 mg/kg administered through diet for 1 week prior to benzo[alpha]pyrene challenge and continued additional 2 days post last dose of benzo[alpha]pyrene by dissecting microscopic analysis relative to control; type: functional, Stomach; design: scale not given: the % may be the effect or the level left
Mus musculus [4] = assay: as §1, with “inhibition of” for “decrease in”, “growth” for “incidence”; type: functional, Stomach
[5] = Antioxidant activity of the compound relative to control; type: functional

COc1ccc(O)c(C(C)(C)C)c1.COc1ccc(O)cc1C(C)(C)C [BUTYLATED HYDROXYANISOLE]
Activity (Mus musculus [1]): 10.8 g and 7.4 g | Activity (Mus musculus [2]): 3.6 g/day and 3.7 g/day | Activity (Mus musculus [3]): 30% and 10% | TGI (Mus musculus [4]; 5 mg/kg): 50% | inhibition in vivo at 5 mg/kg (Mus musculus [4]; Mus musculus, ICR/Ha, Stomach, read-out: TGI): 70% | fold change (FC) [5]: 1.1 and 0.4
